The values that follow come from PubChem BioAssay (NCI).

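Tested at 5 concentrations; 48 h exposure; 96-well plates; endpoints linearly interpolated, else capped at highest concentration. The concentration for 50% growth inhibition is given as GI50. Definition used: TGI = concentration required for complete inhibition of growth.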

What all share (experiment): NCI tumour cell line growth inhibition, 48 h
In assay [1] the test system is NCI-H226 lung.
Assay [2] has as its system SNB-19 CNS.
Assay [3] deals with NCI-H460 lung.
Assay [4] has as its system MALME-3M melanoma.
Assay [5] has as its system KM12 colon.
Assay [6] concerns HL-60(TB) leukemia.
Assay [7] has as its system SF-539 CNS.
Assay [8] concerns 786-0 renal.
Assay [9] deals with SF-268 CNS.
The subject of assay [10] is UO-31 renal.

Take `COc1ccccc1/C=C1\COc2ccc(-c3ccccc3)cc2C1=O`: the GI50 is 4.02 µM in [1]; 4.2 µM in assay [2]; 2.1 µM in assay [3]; 3.81 µM in assay [4]; 1.93 µM in [5]; 1.86 µM in [6]. The GI50 in assay [7] was 2.61 µM; in assay [8], 4.31 µM; in [9], 3.14 µM; in [10], 8.93 µM. For the same compound, the TGI is 17.7 µM in assay [1]; above 100 µM in assay [2]; 4.62 µM in [3]; 40.4 µM in [4]; 5.55 µM in assay [5]; above 100 µM in assay [6]. In addition, the TGI in [7] is 6.44 µM; in assay [8], above 100 µM; in assay [9], 10.4 µM; in [10], 37.3 µM.
Regarding `O=c1c2c([nH]c3nccn13)CCC2`, the TGI in [1], in assay [2], in assay [3], in assay [4], in [5] and in assay [6] was above 10 µM throughout. In addition, the TGI in assay [7], in assay [8], in assay [9] and in assay [10] was above 10 µM each time.
On to `COc1ccc(C(=O)Cn2c(C(=O)c3ccccc3)nc3ccccc32)cc1`, for which the GI50 is above 90.5 µM in [1]; 6.74 µM in assay [2]; 3.39 µM in assay [3]; 1.64 µM in assay [5]; 0.916 µM in assay [6]; 3.03 µM in assay [7]. The results for the GI50 in [8], in assay [9] and in assay [10] were 9.31 µM, 4.18 µM and 13.3 µM, respectively. The TGI is above 100 µM in [1]; above 100 µM in [2]; above 100 µM in [3]; above 100 µM in assay [4]; above 100 µM in [5]; above 22.9 µM in [6]. Moreover, the TGI in assay [7], in [8], in assay [9] and in [10] was above 100 µM throughout.
As for `CN(C)c1ccc(Nc2c3ccccc3nc3ccccc23)cc1`, the GI50 in assay [1] was 1.04 µM; in assay [2], 1.63 µM; in [3], 0.367 µM; in assay [4], 1.2 µM; in assay [5], 1.32 µM; in [6], 0.84 µM. The GI50 is 1.72 µM in assay [7], 1.29 µM in assay [8], 1.52 µM in assay [9] and 0.359 µM in assay [10]. In addition, the TGI in [1] stood at 2.68 µM; in [2], 9.32 µM; in assay [3] it was 1.72 µM; in assay [4], 3.03 µM; in assay [5] it was 4.54 µM; in [6], 3.61 µM. In addition, the TGI in assay [7] was found to be 8.33 µM; in [8], 3.13 µM; in [9], 7.83 µM; in assay [10], 1.87 µM.
Regarding `N#CC(CCN1CCC(Nc2ccccc2)(c2nnnn2C2CCCCC2)CC1)(c1ccccc1)c1ccccc1`, the TGI in assay [1], in assay [2], in assay [3], in [4], in assay [5] and in assay [6] was above 100 µM throughout. For the same compound, the TGI in assay [7], in [8], in assay [9] and in assay [10] was above 100 µM throughout.
With `COc1ccc(-c2c(C)c(C(=O)O)nc(-c3ccc4c(O)c(OC)c5c(c4n3)=NC(C)(C)N=5)c2N)c(O)c1OC`, the TGI in assay [1] is 63.1 µM; in assay [2], 95 µM; in assay [3] it was 17 µM; in assay [4] it was 17.7 µM; in [5], 33.1 µM; in assay [6] it was 37.1 µM. For the same compound, the TGI in assay [7] was determined as 35.5 µM; in assay [8], 31.6 µM; in assay [9], 21.6 µM; in assay [10], 27.5 µM.
On to `COC(=O)c1c2c(c(C)[n+]([O-])c1C)C(=O)C=C(NCc1ccccc1)C2=O`, for which the GI50 in [1] was 1.78 µM; in assay [2], 1.42 µM; in assay [3] it was 0.872 µM; in [4], 0.147 µM; in assay [5], 0.7 µM; in [6], 0.317 µM. For the same compound, the GI50 is 0.711 µM in [7], 2.33 µM in assay [8], 1.51 µM in [9] and 1.35 µM in assay [10]. The TGI in assay [1] was determined as 3.74 µM; in assay [2], 2.74 µM; in assay [3], 2.73 µM; in assay [4], 0.353 µM; in assay [5], 3.34 µM; in assay [6], 1.19 µM. Also, the TGI in assay [7] worked out at 1.94 µM; in assay [8], 6.88 µM; in [9], 4.47 µM; in [10], 2.65 µM.
Regarding `O=C(NCCN1CCOCC1)OCc1nc2nc(Cl)nc(N3CCOCC3)c2[nH]1`, the GI50 in [1] was 3.14 µM; in assay [2] it was 4.18 µM; in assay [3], 3.29 µM; in assay [4], 4.41 µM; in assay [5], 1.96 µM; in assay [6], 1.61 µM. Besides, the GI50 in assay [7] was 0.402 µM; in assay [8] it was 23.7 µM; in [9], 3.02 µM; in [10], 4.25 µM. Also, the TGI in assay [1] was above 100 µM; in [2] it was above 100 µM; in assay [3], above 100 µM; in assay [4], above 100 µM; in [5], above 100 µM; in assay [6] it was 6.83 µM. The TGI was 3.29 µM in assay [7], above 100 µM in assay [8], above 100 µM in assay [9] and above 100 µM in assay [10].
Take `O=c1cccccc1[O-].O=c1cccccc1[O-].O=c1cccccc1[O-].[Eu+3]`: the TGI was above 100 µM in [1]; above 100 µM in [2]; above 100 µM in [3]; above 100 µM in assay [4]; above 100 µM in assay [5]; 74.5 µM in assay [6]. Further, the TGI in assay [7], in assay [8], in assay [9] and in assay [10] was above 100 µM in each case. Also, the GI50 in [7] was 30.2 µM.
